Experimental data as given in PubChem BioAssay (NCI).
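The compound was tested at five concentrations on cells cultured in 96-well plates, with a 48-hour exposure period. GI50 = concentration required for 50% inhibition of growth. TGI: total growth inhibition.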

What was measured:
Test in all cases: NCI tumour cell line growth inhibition, 48 h
HL-60(TB) leukemia = system: HL-60(TB) leukemia
SK-OV-3 ovarian = system: SK-OV-3 ovarian
EKVX NSCLC = system: EKVX NSCLC
SR leukemia = system: SR leukemia
HCT-116 colon = system: HCT-116 colon
OVCAR-3 ovarian = system: OVCAR-3 ovarian
SNB-19 CNS = system: SNB-19 CNS
NCI-H522 lung = system: NCI-H522 lung
MALME-3M melanoma = system: MALME-3M melanoma
MDA-MB-435 = system: MDA-MB-435

SMILES | GI50 (HL-60(TB) leukemia) | TGI (HL-60(TB) leukemia) | GI50 (SK-OV-3 ovarian) | TGI (SK-OV-3 ovarian) | GI50 (EKVX NSCLC) | TGI (EKVX NSCLC) | GI50 (SR leukemia) | TGI (SR leukemia) | GI50 (HCT-116 colon) | TGI (HCT-116 colon) | GI50 (OVCAR-3 ovarian) | TGI (OVCAR-3 ovarian) | GI50 (SNB-19 CNS) | TGI (SNB-19 CNS) | GI50 (NCI-H522 lung) | TGI (NCI-H522 lung) | GI50 (MALME-3M melanoma) | TGI (MALME-3M melanoma) | GI50 (MDA-MB-435) | TGI (MDA-MB-435)
CC1(C)N=C(N)N=C(N)N1c1cccc(CCCCc2ccc(S(=O)(=O)F)cc2Cl)c1 | 7.02 µM | 55.8 µM | 24.6 µM | > 100 µM | 2.02 µM | > 67.5 µM | 0.456 µM | > 49.5 µM | 1.06 µM | > 37.7 µM | 5.37 µM | 34.1 µM | 1.64 µM | 20.6 µM | 3.6 µM | 20 µM | 1.12 µM | 28.2 µM | 0.611 µM | 18.5 µM
Cn1c2ccc([N+](=O)[O-])cc2c(=O)c2c(O)cc(O)cc21 | – | > 100 µM | – | – | – | > 100 µM | – | > 100 µM | – | – | – | > 100 µM | – | > 100 µM | – | 24 µM | – | 64.6 µM | – | > 100 µM
CN(C)CCNC(=O)c1cc([N+](=O)[O-])ccn1 | – | 46.4 µM | – | > 100 µM | – | > 100 µM | – | > 100 µM | – | 61.4 µM | – | 56.2 µM | – | > 100 µM | – | 37.2 µM | – | 28 µM | – | 35.8 µM
N#CSCC1CC(O)(c2ccccc2)C(c2ccccc2)C(c2ccc(F)cc2)O1 (stereo unspecified) | 0.672 µM | 2.96 µM | 28.6 µM | > 90.6 µM | 2.46 µM | 7.58 µM | 0.344 µM | 3.02 µM | 1.28 µM | 2.9 µM | 1.52 µM | 2.99 µM | 19 µM | > 70.3 µM | 2.4 µM | 7.24 µM | 2.08 µM | 5.02 µM | 1.99 µM | 4.9 µM
NC1CCC[C@@H](O)[C@H]1O (stereo partly specified) | – | > 100 µM | – | > 100 µM | – | > 100 µM | – | > 100 µM | – | > 100 µM | – | > 100 µM | – | > 100 µM | – | > 100 µM | – | > 100 µM | – | > 100 µM
c1ccc2[nH]c(-c3ccc(OCCCCCOc4ccc(-c5nc6ccccc6[nH]5)cc4)cc3)nc2c1 | 1.28 µM | 3.29 µM | 6.39 µM | 17.5 µM | 14.8 µM | > 70.4 µM | 0.241 µM | 0.721 µM | 1.25 µM | 3.87 µM | 0.828 µM | 1.84 µM | 5.97 µM | > 28.4 µM | 2.29 µM | 6.62 µM | 2.12 µM | 3.93 µM | 1.63 µM | 3.94 µM
COc1ccc(C(=O)c2cc(OC)c(OC)c(OC)c2)cc1O | 0.0103 µM | 0.0557 µM | 0.395 µM | > 100 µM | 0.791 µM | > 100 µM | < 0.01 µM | > 100 µM | 0.0376 µM | > 100 µM | 0.0207 µM | 0.0511 µM | 0.268 µM | > 100 µM | < 0.0164 µM | – | > 100 µM | > 100 µM | < 0.01 µM | –
